The values below come from patent US20050106141A1, “Hairless protein-interacting partner complexes and methods thereof for the beautification and/or improvement of mammalian skin” (The Procter & Gamble Company, priority 2003, published 2005).

For test [1], the target named is T1, BD-VDR><AD-TRβ interaction (Mus musculus, UniProt P48281).
T1 construct: expressed in transfected cells; host or cells: yeast
T1 sequence (P48281 1-422): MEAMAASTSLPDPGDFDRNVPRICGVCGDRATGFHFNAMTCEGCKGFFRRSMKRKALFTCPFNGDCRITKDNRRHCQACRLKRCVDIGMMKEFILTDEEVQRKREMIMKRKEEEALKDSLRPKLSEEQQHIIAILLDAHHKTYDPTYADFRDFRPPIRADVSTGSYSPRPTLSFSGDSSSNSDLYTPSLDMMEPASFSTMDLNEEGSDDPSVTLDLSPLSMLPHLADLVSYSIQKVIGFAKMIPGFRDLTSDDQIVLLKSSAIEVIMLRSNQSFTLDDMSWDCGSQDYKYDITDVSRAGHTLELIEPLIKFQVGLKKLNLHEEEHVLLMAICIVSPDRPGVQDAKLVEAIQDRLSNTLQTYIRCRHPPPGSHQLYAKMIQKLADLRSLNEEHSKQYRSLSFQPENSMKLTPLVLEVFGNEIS
T1 sequence (P10828 1-461 partner): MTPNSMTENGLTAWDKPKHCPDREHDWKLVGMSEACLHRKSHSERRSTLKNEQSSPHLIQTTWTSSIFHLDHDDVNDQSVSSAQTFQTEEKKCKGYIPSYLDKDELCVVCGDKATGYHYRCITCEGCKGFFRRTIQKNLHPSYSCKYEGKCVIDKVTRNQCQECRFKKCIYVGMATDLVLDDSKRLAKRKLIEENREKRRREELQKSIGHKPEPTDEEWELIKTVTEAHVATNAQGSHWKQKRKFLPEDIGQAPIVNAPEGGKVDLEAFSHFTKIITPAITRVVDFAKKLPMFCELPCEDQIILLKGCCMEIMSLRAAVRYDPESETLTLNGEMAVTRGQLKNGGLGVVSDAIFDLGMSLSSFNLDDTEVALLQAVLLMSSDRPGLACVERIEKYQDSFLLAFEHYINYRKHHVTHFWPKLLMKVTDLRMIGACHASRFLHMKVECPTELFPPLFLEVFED
Put plainly: Yeast two-hybrid alpha-galactosidase reporter assay, BD-VDR interaction with AD-TRβ. Type of test: cell-based. Conditions: assay of example 3. (In general: A reporter such as luciferase makes a cellular process visible.)
Procedure: Increase or decrease in alpha-galactosidase activity of AH109 (BD-HRt><AD-IP) strain grown in Leu, Trp, His TDO in the presence of various test compounds is used to screen for agonists or antagonists of BD-HRt><AD-IP interaction. A diverse library of compounds is screened.
Microtiter plates with TDO media seeded with freshly cultured yeast cells at 0.05 optical density at 650 nm (OD650) are treated with various test compounds at 100-400 uM or vehicle (DMSO) control. Stock solutions of test compounds at 10-20 mM are made in DMSO and tested at 100-400 μM final concentration. The final assay mixture comprising of cells, TDO and compound (or DMSO alone) is adjusted to be 100 ul and the amount of DMSO is maintained at or below 2%. The plates are incubated for 3-4 days without shaking at 25° C. Plates are briefly agitated to obtain uniform suspension of cells prior to addition of assay buffer. […] Plates are briefly agitated to obtain uniform suspension of cells and absorbance at both 650 nM (OD650)ref and 410 nm (OD410)ref are measured. […] For color development 100 ul of 0.1 M sodium carbonate solution is added and after standing for at least 1 minute, OD410exp is measured.

The test system of test [2] is LXR. The following applies: oral administration, hamsters; cited from earlier work.
In test [3] the test system is LXR. Conditions: oral administration, mice; cited from earlier work.

SMILES strings stand for the structures. Where two headings read alike, the source gives them in different places.

Turning to `C=C1CC[C@H](O)C/C1=C/C=C1\CCC[C@]2(C)[C@@H]([C@H](C)CCCC(C)(C)O)CC[C@@H]12` [25 HC, 25-hydroxy cholecalciferol], in test [1], the “enhancement of BD-VDR / AD-TRβ interaction” value is given as “approximately 2 fold”.
In the case of `O=S(=O)(c1ccccc1)N(CC(F)(F)F)c1ccc(C(O)(C(F)(F)F)C(F)(F)F)cc1` [T0901317], in the test on LXR [2], the plasma phospholipid levels result is reported as “increased” and the plasma triglyceride levels entry is listed as “increased”. For the same compound, in the test on LXR [3], the plasma phospholipid levels result was “increased” and the plasma triglyceride levels entry was “increased”.
